Calls of active or inactive are those of the source. No cut-off for these calls is given here.
Legend:
[1] = biological target: 3',5'-cyclic-AMP phosphodiesterase 4B (Homo sapiens, UniProt Q07343); experiment: Inhibition of PDE4B2 (152-487) (unknown origin) expressed in Escherichia coli BL21 assessed as using [3H]-cAMP as substrate measured for 15 mins by liquid scintillation counting analysis
[2] = biological target: cGMP-dependent 3',5'-cyclic phosphodiesterase (Homo sapiens, UniProt O00408); experiment: Inhibition of PDE2A (580-919) (unknown origin) expressed in Escherichia coli BL21 assessed as using [3H]-cAMP as substrate measured for 15 mins by liquid scintillation counting analysis
[3] = Half life in Sprague-Dawley rat at 5 mg/kg, po; format: ADME, organism-based; settings: in vivo
[4] = Half life in Sprague-Dawley rat at10 mg/kg, po; format: ADME, organism-based; settings: in vivo, dose 10 mg/kg
[5] = AUC (0 to infinity) in Sprague-Dawley rat at 10 mg/kg, po; format: ADME, organism-based; parameters: route oral, time infinity, dose 10 mg/kg; settings: in vivo
Cytochrome P450 2B6 = biological target: T1, Cytochrome P450 2B6 (Homo sapiens, UniProt P20813); experiment: Inhibition of human hepatic CYP2B6; format: ADME, tissue-based, Liver
T1 sequence (P20813 whole entry): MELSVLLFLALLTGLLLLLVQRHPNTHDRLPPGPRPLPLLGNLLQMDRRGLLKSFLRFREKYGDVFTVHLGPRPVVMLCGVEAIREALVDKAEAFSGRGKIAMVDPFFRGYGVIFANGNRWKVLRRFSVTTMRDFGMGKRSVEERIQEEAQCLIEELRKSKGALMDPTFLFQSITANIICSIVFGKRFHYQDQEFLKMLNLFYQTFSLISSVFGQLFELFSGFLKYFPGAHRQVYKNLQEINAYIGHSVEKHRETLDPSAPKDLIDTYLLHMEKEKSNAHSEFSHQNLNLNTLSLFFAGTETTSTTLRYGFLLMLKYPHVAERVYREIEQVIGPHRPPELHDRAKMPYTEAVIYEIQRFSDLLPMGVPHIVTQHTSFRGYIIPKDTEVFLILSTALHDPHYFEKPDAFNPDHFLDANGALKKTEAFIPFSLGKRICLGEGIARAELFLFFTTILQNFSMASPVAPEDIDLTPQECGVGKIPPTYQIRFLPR

Cytochrome P450 2D6 = Cytochrome P450 2D6 (Homo sapiens, UniProt P10635); experiment: Inhibition of human hepatic CYP2D6; format: ADME, tissue-based, Liver
[6] = Acute toxicity in mouse at 1.5 g/Kg, po; settings: in vivo, 1500 mg/kg
Rattus norvegicus [7] = experiment: Anti-idiopathic pulmonary fibrotic activity in bleomycin-induced Sprague-Dawley rat model assessed as decrease in alpha-smooth muscle actin protein expression of lungs at 10 mg/kg, po treated for 28 consecutive days by Western blot analysis; format: functional, organism-based
Rattus norvegicus [8] = experiment: Anti-idiopathic pulmonary fibrotic activity in bleomycin-induced Sprague-Dawley rat model assessed as decrease in fibronectin expression of lungs at 10 mg/kg, po treated for 28 consecutive days by Western blot analysis; format: functional, organism-based
A549 = experiment: Anti-idiopathic pulmonary fibrotic activity in human A549 cells assessed as reduction in TGF-beta-induced N-cadherin expression measured after 48 hrs by Western blot analysis; format: functional, cell-based; settings: dose 10-20 µM

Chain of cGMP-dependent 3',5'-cyclic phosphodiesterase (O00408 whole entry): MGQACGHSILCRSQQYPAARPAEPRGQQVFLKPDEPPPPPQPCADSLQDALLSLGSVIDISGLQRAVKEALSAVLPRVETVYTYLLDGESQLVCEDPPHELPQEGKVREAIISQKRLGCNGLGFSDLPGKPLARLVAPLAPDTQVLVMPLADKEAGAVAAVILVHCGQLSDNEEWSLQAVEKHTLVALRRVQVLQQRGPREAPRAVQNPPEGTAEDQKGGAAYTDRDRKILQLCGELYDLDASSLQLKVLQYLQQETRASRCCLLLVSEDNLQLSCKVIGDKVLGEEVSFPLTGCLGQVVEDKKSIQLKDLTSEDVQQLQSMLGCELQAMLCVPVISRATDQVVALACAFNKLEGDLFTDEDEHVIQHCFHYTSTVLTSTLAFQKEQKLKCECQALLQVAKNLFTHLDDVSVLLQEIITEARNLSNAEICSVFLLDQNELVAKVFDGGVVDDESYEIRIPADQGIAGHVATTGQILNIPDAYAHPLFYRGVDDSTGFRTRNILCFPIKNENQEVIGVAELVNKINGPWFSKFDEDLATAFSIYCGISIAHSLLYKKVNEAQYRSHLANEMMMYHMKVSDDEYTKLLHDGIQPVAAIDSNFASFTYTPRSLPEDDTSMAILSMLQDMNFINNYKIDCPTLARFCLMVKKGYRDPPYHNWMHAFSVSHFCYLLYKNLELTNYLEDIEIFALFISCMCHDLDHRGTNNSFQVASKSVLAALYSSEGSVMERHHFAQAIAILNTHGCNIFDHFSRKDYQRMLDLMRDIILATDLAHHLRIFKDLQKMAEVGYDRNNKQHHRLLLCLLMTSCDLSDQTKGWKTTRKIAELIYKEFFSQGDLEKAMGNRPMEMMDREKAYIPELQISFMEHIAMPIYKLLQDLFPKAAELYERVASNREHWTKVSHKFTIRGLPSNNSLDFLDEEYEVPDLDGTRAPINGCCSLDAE
Chain of 3',5'-cyclic-AMP phosphodiesterase 4B (Q07343 whole entry): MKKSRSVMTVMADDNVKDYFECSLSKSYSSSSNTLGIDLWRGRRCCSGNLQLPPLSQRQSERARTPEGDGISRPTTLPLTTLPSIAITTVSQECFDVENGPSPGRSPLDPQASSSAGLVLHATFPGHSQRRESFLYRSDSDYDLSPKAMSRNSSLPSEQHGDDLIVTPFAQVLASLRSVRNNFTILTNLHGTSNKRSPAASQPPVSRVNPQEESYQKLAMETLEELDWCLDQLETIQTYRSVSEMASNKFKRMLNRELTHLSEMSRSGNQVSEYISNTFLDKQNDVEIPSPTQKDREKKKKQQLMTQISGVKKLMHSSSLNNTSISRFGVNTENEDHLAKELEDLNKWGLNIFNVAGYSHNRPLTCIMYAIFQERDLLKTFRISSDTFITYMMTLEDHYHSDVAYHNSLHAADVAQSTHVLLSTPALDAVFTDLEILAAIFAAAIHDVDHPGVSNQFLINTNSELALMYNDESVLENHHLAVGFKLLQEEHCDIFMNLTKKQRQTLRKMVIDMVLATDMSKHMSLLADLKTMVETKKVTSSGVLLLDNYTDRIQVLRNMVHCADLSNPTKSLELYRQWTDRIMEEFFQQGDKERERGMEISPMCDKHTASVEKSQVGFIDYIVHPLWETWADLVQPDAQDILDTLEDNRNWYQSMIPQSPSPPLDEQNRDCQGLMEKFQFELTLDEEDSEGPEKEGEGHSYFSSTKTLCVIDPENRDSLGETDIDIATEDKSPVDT
Chain of Cytochrome P450 2D6 (P10635 whole entry): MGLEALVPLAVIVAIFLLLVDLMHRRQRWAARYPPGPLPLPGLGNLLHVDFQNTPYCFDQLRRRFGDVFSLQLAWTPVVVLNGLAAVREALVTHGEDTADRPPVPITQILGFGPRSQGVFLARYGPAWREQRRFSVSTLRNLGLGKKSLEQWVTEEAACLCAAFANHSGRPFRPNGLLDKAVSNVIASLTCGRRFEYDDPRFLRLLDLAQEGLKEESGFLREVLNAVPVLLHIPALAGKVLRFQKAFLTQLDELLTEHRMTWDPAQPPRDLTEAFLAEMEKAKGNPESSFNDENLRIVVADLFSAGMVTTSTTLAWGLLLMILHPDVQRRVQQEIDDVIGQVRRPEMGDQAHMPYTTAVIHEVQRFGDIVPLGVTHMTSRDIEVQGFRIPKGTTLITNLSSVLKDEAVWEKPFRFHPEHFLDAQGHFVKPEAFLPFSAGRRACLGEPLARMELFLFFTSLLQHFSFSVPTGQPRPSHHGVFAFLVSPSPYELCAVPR

COc1c(OCc2ccc(F)cc2)cc2oc3cc4c(c(OC/C=C/C(=O)O)c3c(=O)c2c1CC=C(C)C)C=CC(C)(C)O4
IC50 [1]: 140 nM | IC50 [2]: 940 nM | half-life [3]: 1.55 h | half-life [4]: 1.02 h | AUC(0-inf) [5]: 2110 ng·h/mL | IC50 (Cytochrome P450 2B6): > 25000 nM | IC50 (Cytochrome P450 2D6): > 25000 nM | Activity [6]: Non-Toxic | Activity (Rattus norvegicus [7]): Active | Activity (Rattus norvegicus [8]): Active | Activity (A549): Dose-Dependent Effect

— ChEMBL document CHEMBL4831531, “Mangostanin Derivatives as Novel and Orally Active Phosphodiesterase 4 Inhibitors for the Treatment of Idiopathic Pulmonary Fibrosis with Improved Safety” (J Med Chem, 2021)
